Source: patent US6069130A, “Ketoheterocyclic inhibitors of factor Xa” (COR Therapeutics, Inc., priority 1995, dated 2000)

Experiments:
[1] = tested on: thrombus growth in abdominal vena cava; test: rabbit deep vein thrombosis model, inhibition of thrombus growth; format: in vivo; details: for of Thrombosis (inhibition of thrombus growth): rabbit
From the text: (§1) Rabbits were anesthetized with I.M. injections of Ketamine, Xylazine, and Acepromazine cocktail. A standardized protocol consisted of insertion of a thrombogenic cotton thread and copper wire apparatus into the abdominal vena cava of the anesthetized rabbit. A non-occlusive thrombus was allowed to develop in the central venous circulation and inhibition of thrombus growth was used as a measure of the antithrombotic activity of the studied compounds. Test agents or control saline were administered through a marginal ear vein catheter. A femoral vein catheter was used for blood sampling prior to and during steady state infusion of test compound. Initiation of thrombus formation begins immediately after advancement of the cotton thread apparatus into the central venous circulation. Test compounds were administered from time=30 min to time=150 min at which the experiment was terminated. The rabbits were euthanized and the thromidus excised by surgical dissection and characterized by weight and histology. Blood samples were analyzed for changes in hematological and coagulation parameters.

[2] = rabbit, in vivo
From the text: as §1

[3] = coagulation parameters (aPTT, PT) in rabbit venous thrombosis model; format: in vivo; details: for fold increase over baseline PT / fold increase over baseline aPTT: rabbit, steady state, mean ± SD
From the text: as §1

[4] = highest dose (100 μg/kg+2.57 μg/kg/min)

For `NC(N)=NCCCC(N)C(=O)NCC(=O)NC(CCCN=C(N)N)C(=O)c1nccs1` [H-D-Arg-Gly-Arg-thiazole, (D)-Arg-Gly-Arg-thiazole], the “antithrombotic efficacy in the rabbit venous thrombosis model (in words)” value ([1]; at the higher doses evaluated) was “demonstrated antithrombotic efficacy at the higher doses evaluated”, the “of Thrombosis (inhibition of thrombus growth)” value ([1]; i.v. 50 μg/kg + 1.28 μg/kg/min) was -7.84 and the “of Thrombosis (inhibition of thrombus growth)” value ([1]; i.v. 75 μg/kg + 1.93 μg/kg/min) was 42.955. The “of Thrombosis (inhibition of thrombus growth)” value ([1]; i.v. 100 μg/kg + 2.57 μg/kg/min) was 117.72, the “effects on hematological parameters as compared to saline controls (in words)” value [2] was “no significant effects” and the “effect on PT prolongation (in words)” value [3, 4] was “no significant effect”. The “effect on aPTT prolongation (in words)” value [3, 4] was “no significant effect”, the “fold increase over baseline PT” value ([3]; 50 μg/kg + 1.28 μg/kg/min) was 1.00 ± 0.00 fold and the “fold increase over baseline aPTT” value ([3]; 50 μg/kg + 1.28 μg/kg/min) was 1.00 ± 0.03 fold. For the same compound, the “fold increase over baseline PT” value ([3]; 75 μg/kg + 1.93 μg/kg/min) was 1.00 ± 0.00 fold, the “fold increase over baseline aPTT” value ([3]; 75 μg/kg + 1.93 μg/kg/min) was 1.02 ± 0.03 fold and the “fold increase over baseline PT” value ([3]; 100 μg/kg + 2.57 μg/kg/min) was 0.83 ± 0.00 fold. For the same compound, the “fold increase over baseline aPTT” value ([3]; 100 μg/kg + 2.57 μg/kg/min) was 1.08 ± 0.02 fold.
